Here are results for 5 compounds from EP0933350A1, “Tricyclic retinoids, methods for their production and use” (LIGAND PHARMACEUTICALS INCORPORATED, priority 1994, dated 1996).

The structures appear in SMILES notation.

In experiment [1] the target is T1, RARγ (Homo sapiens, UniProt P13631).
T1 sequence (P13631 1-454): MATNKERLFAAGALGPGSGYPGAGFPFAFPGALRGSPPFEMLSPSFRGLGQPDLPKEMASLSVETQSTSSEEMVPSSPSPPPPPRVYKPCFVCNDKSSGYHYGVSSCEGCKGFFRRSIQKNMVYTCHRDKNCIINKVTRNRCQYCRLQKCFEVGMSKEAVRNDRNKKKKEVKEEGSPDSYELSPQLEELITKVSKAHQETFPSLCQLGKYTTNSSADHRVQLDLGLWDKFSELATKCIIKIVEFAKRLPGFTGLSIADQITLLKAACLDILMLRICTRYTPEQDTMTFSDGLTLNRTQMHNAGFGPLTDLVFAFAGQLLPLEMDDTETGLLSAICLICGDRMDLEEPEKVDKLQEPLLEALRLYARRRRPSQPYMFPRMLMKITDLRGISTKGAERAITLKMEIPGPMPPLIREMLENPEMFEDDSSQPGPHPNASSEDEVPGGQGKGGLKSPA
Nature of the experiment: competitive binding of tritiated retinoids to retinoid receptors. Conditions: competition with tritiated retinoid, Cheng-Prussof equation.

The target of experiment [2] is T2, RXRα (Homo sapiens, UniProt P19793).
T2 sequence (P19793 1-462): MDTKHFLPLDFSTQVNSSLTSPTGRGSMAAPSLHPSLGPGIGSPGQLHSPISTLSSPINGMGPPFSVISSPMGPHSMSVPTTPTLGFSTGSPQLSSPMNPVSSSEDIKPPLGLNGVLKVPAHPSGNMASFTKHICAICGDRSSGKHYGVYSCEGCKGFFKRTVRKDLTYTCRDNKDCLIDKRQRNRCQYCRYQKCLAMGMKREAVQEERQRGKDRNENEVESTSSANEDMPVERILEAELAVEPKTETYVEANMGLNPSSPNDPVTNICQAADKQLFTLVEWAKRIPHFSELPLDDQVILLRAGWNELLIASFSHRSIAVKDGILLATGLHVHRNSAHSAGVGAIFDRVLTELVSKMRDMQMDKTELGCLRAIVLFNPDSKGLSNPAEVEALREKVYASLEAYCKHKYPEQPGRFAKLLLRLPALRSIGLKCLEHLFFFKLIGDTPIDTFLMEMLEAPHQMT
The experiment can be described thus: co-transfection assay (RAR/RXR agonist activity, luciferase reporter in CV-1 cells). It counts as cell-based. Conditions: read-out: RXRα Pot.

The test system of experiment [3] is AML-193 cell line. Nature of the experiment: viability (tetrazolium dye, mitochondrial function). The settings on record: Homo sapiens, 96 hours, read-out: MTS IC50. The experiment is classed as cell-based.
The next experiment addresses T3, RXRβ (Mus musculus, UniProt P28704).
T3 sequence (P28704 1-520): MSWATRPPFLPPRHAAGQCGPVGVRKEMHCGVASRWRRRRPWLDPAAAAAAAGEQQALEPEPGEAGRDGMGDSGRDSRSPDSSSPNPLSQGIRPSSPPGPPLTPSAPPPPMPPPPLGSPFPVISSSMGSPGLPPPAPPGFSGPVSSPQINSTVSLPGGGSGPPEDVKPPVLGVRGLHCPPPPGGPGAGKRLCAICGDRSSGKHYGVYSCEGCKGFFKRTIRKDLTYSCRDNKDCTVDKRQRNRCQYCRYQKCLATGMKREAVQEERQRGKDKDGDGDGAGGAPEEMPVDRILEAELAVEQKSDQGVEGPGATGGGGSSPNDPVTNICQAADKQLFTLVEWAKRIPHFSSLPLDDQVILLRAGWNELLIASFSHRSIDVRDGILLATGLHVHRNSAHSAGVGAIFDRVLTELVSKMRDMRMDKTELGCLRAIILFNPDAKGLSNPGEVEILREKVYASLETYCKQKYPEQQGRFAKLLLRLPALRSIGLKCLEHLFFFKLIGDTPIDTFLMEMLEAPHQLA
Nature of the experiment: co-transfection assay (RAR/RXR agonist activity, luciferase reporter in CV-1 cells). The experiment is classed as cell-based. The settings on record: read-out: RXRβ Pot.

Experiment [4] deals with T2, RXRα. The experiment can be described thus: competitive binding of tritiated retinoids to retinoid receptors. Conditions: competition with tritiated retinoid, Cheng-Prussof equation.
In experiment [5] the test system is RPMI 8226 cell line. Nature of the experiment: viability (tetrazolium dye, mitochondrial function). It counts as cell-based. Conditions: Homo sapiens, 96 hours, read-out: MTS IC50.
The subject of experiment [6] is ME 180 cell line. Nature of the experiment: incorporation of 3H-thymidine (antiproliferative). It counts as cell-based. The settings on record: Homo sapiens, 96 hours, radiolabeled thymidine incorporation, read-out: TdR IC50.
Experiment [7] has as its system ME 180 cell line. The experiment can be described thus: viability (tetrazolium dye, mitochondrial function). The experiment is classed as cell-based. Conditions: Homo sapiens, 96 hours, read-out: MTS IC50.
Experiment [8] deals with RPMI 8226 cell line. The experiment can be described thus: incorporation of 3H-thymidine (antiproliferative). Conditions: Homo sapiens, 96 hours, radiolabeled thymidine incorporation, read-out: TdR IC50. It counts as cell-based.
A further experiment concerns the target T4, RARβ (Homo sapiens, UniProt P10826).
T4 sequence (P10826 1-455): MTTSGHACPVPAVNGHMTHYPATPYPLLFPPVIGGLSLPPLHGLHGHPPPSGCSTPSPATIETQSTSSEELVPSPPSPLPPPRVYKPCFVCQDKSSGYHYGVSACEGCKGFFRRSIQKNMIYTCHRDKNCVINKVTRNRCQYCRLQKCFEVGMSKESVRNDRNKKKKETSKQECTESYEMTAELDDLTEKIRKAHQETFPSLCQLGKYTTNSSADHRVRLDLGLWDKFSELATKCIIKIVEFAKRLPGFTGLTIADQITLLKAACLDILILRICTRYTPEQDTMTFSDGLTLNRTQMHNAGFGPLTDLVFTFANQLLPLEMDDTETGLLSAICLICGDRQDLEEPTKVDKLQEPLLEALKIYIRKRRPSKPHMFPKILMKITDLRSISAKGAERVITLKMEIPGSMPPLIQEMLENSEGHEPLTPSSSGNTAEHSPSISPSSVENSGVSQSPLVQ
The experiment can be described thus: competitive binding of tritiated retinoids to retinoid receptors. Conditions: competition with tritiated retinoid, Cheng-Prussof equation.

For experiment [9], the target named is T1, RARγ. The experiment can be described thus: co-transfection assay (RAR/RXR agonist activity, luciferase reporter in CV-1 cells). The experiment is classed as cell-based. Conditions: potency = EC50, agonist, 40 hours, read-out: RARγ Pot.
The test system of experiment [10] is AML-193 cell line. The experiment can be described thus: incorporation of 3H-thymidine (antiproliferative). The settings on record: Homo sapiens, 96 h, read-out: TdR IC50 (nM).
Another experiment concerns TPA induction of ODC. Nature of the experiment: ornithine decarboxylase (ODC) assay: inhibition of TPA induction of ODC. The experiment is classed as cell-based. Conditions: concentration required to inhibit the TPA induction of ODC by 80 percent.

For the compound `CC(/C=C/C=C1\CCOc2cc3c(cc21)C(C)(C)CCC3(C)C)=C\C(=O)O` [Compound 119b, (2E,4E)-3-Methyl-6-[(E)-2,3,6,7,8,9-hexahydro-6,6,9,9-tetramethylbenzo[g]chromen-4-ylidene]hexa-2,4-dienoic acid], the values for the Kd at RARγ [1], at RXRα [4] and on RARβ were 87 nM, 246 nM and 50 nM, respectively. Besides, the EC50 at RXRα [2] is 1660 nM; at RXRβ, 1140 nM; on RARγ [9], 1 nM. Further, the IC50 in the experiment on AML-193 cell line [3] is 1000 nM; in the experiment on RPMI 8226 cell line [5], 2.6 nM; in the experiment with ME 180 cell line [6], 0.6 nM; with ME 180 cell line [7], 2 nM; in the experiment on RPMI 8226 cell line [8], 0.5 nM; in the experiment with AML-193 cell line [10] it was 0.6 nM.

As to `CC(/C=C/CN1CCCCc2cc3c(cc21)C(C)(C)CCC3(C)C)=C\C(=O)O` [Compound 138b, (2E,4E)-3-Methyl-6-[7,7,10,10-tetramethyl-2,3,4,5,7,8,9,10-octahydronaphtho[2,3-6]azepinyl)hexa-2,4-dienoic acid], the Kd at RARγ [1] is above 1000 nM; on RXRα [4], 136 nM; at RARβ, above 1000 nM. For the same compound, the EC50 at RXRα [2] was 422 nM; on RXRβ it was 204 nM; at RARγ [9], above 10000 nM.

Consider `CC(/C=C/C=C1\CCCc2cc3c(cc21)C(C)(C)CCC3(C)C)=C\C(=O)O` [Compound 109b, (2E,4E)-3-Methyl-6-[(E)-3,4,5,6,7,8-hexahydro-5,5,8,8-tetramethyl-2H-anthracen-1-ylidene]hexa-2,4-dienoic acid], for which the Kd at RARγ [1] is 279 nM; on RXRα [4], 340 nM; on RARβ, 68 nM. In addition, the EC50 at RXRα [2] worked out at 2020 nM; on RXRβ, 64 nM; on RARγ [9], 1 nM. For the same compound, the IC50 in the experiment on AML-193 cell line [3] came to 1000 nM; with RPMI 8226 cell line [5], 10 nM; with ME 180 cell line [6], 5 nM; with ME 180 cell line [7], 100 nM; in the experiment with RPMI 8226 cell line [8] it was 0.05 nM; in the experiment on AML-193 cell line [10] it was 500 nM. The compound also gave an IC80 with TPA induction of ODC of 0.08 nM.

Take `CC(/C=C/C=C1/CCCc2cc3c(cc21)C(C)(C)CCC3(C)C)=C\C(=O)O` [Compound 101b, (2E,4E)-3-Methyl-6-[(Z)-3,4,5,6,7,8-hexahydro-5,5,8,8-tetramethyl-2H-anthracen-1-ylidene]hexa-2,4-dienoic acid]: the values for the Kd at RARγ [1], on RXRα [4] and on RARβ were 541 nM, 34 nM and 299 nM, respectively. The EC50 at RXRα [2] worked out at 35 nM; at RXRβ it was 55 nM; on RARγ [9], 7 nM. The IC50 in the experiment on AML-193 cell line [3] came out at 1000 nM; with RPMI 8226 cell line [5] it was 100 nM; in the experiment with ME 180 cell line [6] it was 8 nM; in the experiment with ME 180 cell line [7] it was 75 nM; in the experiment with RPMI 8226 cell line [8], 6 nM; with AML-193 cell line [10], 37 nM. For the same compound, it took 0.78 nM to reach the 80% level in the experiment with TPA induction of ODC (IC80).

In the case of `CC(/C=C/C=C1/CCOc2cc3c(cc21)C(C)(C)CCC3(C)C)=C\C(=O)O` [Compound 144b], the Kd on RARγ [1] came out at 494 nM; on RXRα [4], 59 nM; at RARβ it was 313 nM. The EC50 at RXRα [2] is 36 nM; on RXRβ, 45 nM; on RARγ [9], 2 nM. Besides, the IC50 is 1000 nM in the experiment on AML-193 cell line [3]; 7.5 nM with RPMI 8226 cell line [5]; 4 nM in the experiment on ME 180 cell line [6]; 10 nM in the experiment on ME 180 cell line [7]; 0.6 nM in the experiment with RPMI 8226 cell line [8]; 0.6 nM with AML-193 cell line [10]. In the experiment with TPA induction of ODC, the IC80 is 0.6 nM.
